# According to PubChem BioAssay (NCI):
#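 Each compound was tested at five concentrations against cells in 96-well plates for 48 hours. GI50: concentration for 50% inhibition of growth. The concentration for full growth arrest is given as TGI.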
# Tests used:
# Experiment in all cases: NCI anticancer screen, dose series, 48 h
# NCI-H226 lung = system: NCI-H226 lung
# MDA-MB-435 = system: MDA-MB-435
# A498 renal = system: A498 renal
# CAKI-1 renal = system: CAKI-1 renal
# SR leukemia = system: SR leukemia
# HL-60(TB) leukemia = system: HL-60(TB) leukemia
# MDA-MB-231 breast = system: MDA-MB-231 breast
# MOLT-4 leukemia = system: MOLT-4 leukemia
# RXF 393 renal = system: RXF 393 renal
# SK-MEL-2 melanoma = system: SK-MEL-2 melanoma
# UO-31 renal = system: UO-31 renal
# HCT-116 colon = system: HCT-116 colon
# NCI-H23 lung = system: NCI-H23 lung
# OVCAR-3 ovarian = system: OVCAR-3 ovarian
# SK-MEL-5 melanoma = system: SK-MEL-5 melanoma
# T-47D breast = system: T-47D breast
# SN12C renal = system: SN12C renal
# RPMI-8226 leukemia = system: RPMI-8226 leukemia
# HOP-92 NSCLC = system: HOP-92 NSCLC
# OVCAR-8 ovarian = system: OVCAR-8 ovarian
# UACC-62 melanoma = system: UACC-62 melanoma
# M14 melanoma = system: M14 melanoma
# DU-145 prostate = system: DU-145 prostate
# HOP-62 NSCLC = system: HOP-62 NSCLC
# KM12 colon = system: KM12 colon
# U251 CNS = system: U251 CNS
# HS 578T breast = system: HS 578T breast
# SNB-75 CNS = system: SNB-75 CNS
# NCI-H460 lung = system: NCI-H460 lung
# OVCAR-5 ovarian = system: OVCAR-5 ovarian
# IGROV1 ovarian = system: IGROV1 ovarian
# SNB-19 CNS = system: SNB-19 CNS
# SK-OV-3 ovarian = system: SK-OV-3 ovarian
# K-562 leukemia = system: K-562 leukemia
# MCF7 breast = system: MCF7 breast
# HT29 colon = system: HT29 colon
# COLO 205 colon = system: COLO 205 colon
# MALME-3M melanoma = system: MALME-3M melanoma
# NCI-H522 lung = system: NCI-H522 lung
# PC-3 prostate = system: PC-3 prostate
# HCT-15 colon = system: HCT-15 colon
# BT-549 breast = system: BT-549 breast
# CCRF-CEM leukemia = system: CCRF-CEM leukemia
# OVCAR-4 ovarian = system: OVCAR-4 ovarian
# SK-MEL-28 melanoma = system: SK-MEL-28 melanoma
# NCI/ADR-RES ovarian = system: NCI/ADR-RES ovarian
# A549 NSCLC = system: A549 NSCLC
# LOX IMVI melanoma = system: LOX IMVI melanoma
# SW-620 colon = system: SW-620 colon
# SF-539 CNS = system: SF-539 CNS
# SF-268 CNS = system: SF-268 CNS
# SF-295 CNS = system: SF-295 CNS
# UACC-257 melanoma = system: UACC-257 melanoma
# TK-10 renal = system: TK-10 renal
# HCC-2998 colon = system: HCC-2998 colon
# 786-0 renal = system: 786-0 renal
# ACHN renal = system: ACHN renal
# EKVX NSCLC = system: EKVX NSCLC
smiles,measurement,setting,value
C[C@H]1S[C@@H](c2ccc(Cl)cc2Cl)N(NC(=O)c2ccncc2)C1=O,TGI,NCI-H226 lung,> 100 µM
same,TGI,MDA-MB-435,> 100 µM
same,TGI,A498 renal,> 100 µM
same,TGI,CAKI-1 renal,> 100 µM
same,TGI,SR leukemia,> 100 µM
same,TGI,HL-60(TB) leukemia,> 100 µM
same,TGI,MDA-MB-231 breast,> 100 µM
same,TGI,MOLT-4 leukemia,> 100 µM
same,TGI,RXF 393 renal,> 100 µM
same,TGI,SK-MEL-2 melanoma,> 100 µM
same,TGI,UO-31 renal,> 100 µM
same,TGI,HCT-116 colon,> 100 µM
same,TGI,NCI-H23 lung,> 100 µM
same,TGI,OVCAR-3 ovarian,> 100 µM
same,TGI,SK-MEL-5 melanoma,> 100 µM
same,TGI,T-47D breast,> 100 µM
same,TGI,SN12C renal,> 100 µM
same,TGI,RPMI-8226 leukemia,> 100 µM
same,TGI,HOP-92 NSCLC,> 100 µM
same,TGI,OVCAR-8 ovarian,> 100 µM
same,TGI,UACC-62 melanoma,> 100 µM
same,TGI,M14 melanoma,> 100 µM
same,TGI,DU-145 prostate,> 100 µM
same,TGI,HOP-62 NSCLC,> 100 µM
same,TGI,KM12 colon,> 100 µM
same,TGI,U251 CNS,> 100 µM
same,TGI,HS 578T breast,> 100 µM
same,TGI,SNB-75 CNS,> 100 µM
same,TGI,NCI-H460 lung,> 100 µM
same,TGI,OVCAR-5 ovarian,> 100 µM
same,TGI,IGROV1 ovarian,> 100 µM
same,TGI,SNB-19 CNS,> 100 µM
same,TGI,SK-OV-3 ovarian,> 100 µM
same,TGI,K-562 leukemia,> 100 µM
same,TGI,MCF7 breast,> 100 µM
same,TGI,HT29 colon,> 100 µM
same,TGI,COLO 205 colon,> 100 µM
same,TGI,MALME-3M melanoma,> 100 µM
same,TGI,NCI-H522 lung,> 100 µM
same,TGI,PC-3 prostate,> 100 µM
same,TGI,HCT-15 colon,> 100 µM
same,TGI,BT-549 breast,> 100 µM
same,TGI,CCRF-CEM leukemia,> 100 µM
same,TGI,OVCAR-4 ovarian,> 100 µM
same,TGI,SK-MEL-28 melanoma,> 100 µM
same,TGI,NCI/ADR-RES ovarian,> 100 µM
O=C1NC(O)c2cc3ccccc3cc2O1 (stereo not drawn),TGI,NCI-H226 lung,> 100 µM
same,TGI,MDA-MB-435,> 100 µM
same,TGI,A549 NSCLC,> 100 µM
same,TGI,SR leukemia,71.3 µM
same,TGI,HL-60(TB) leukemia,> 100 µM
same,TGI,MDA-MB-231 breast,> 100 µM
same,TGI,MOLT-4 leukemia,> 100 µM
same,TGI,LOX IMVI melanoma,95.3 µM
same,TGI,RXF 393 renal,> 100 µM
same,TGI,UO-31 renal,> 100 µM
same,TGI,SW-620 colon,> 100 µM
same,TGI,HCT-116 colon,51.1 µM
same,TGI,NCI-H23 lung,> 100 µM
same,TGI,OVCAR-3 ovarian,88.5 µM
same,TGI,SK-MEL-5 melanoma,> 100 µM
same,TGI,T-47D breast,> 100 µM
same,TGI,SN12C renal,> 100 µM
same,TGI,RPMI-8226 leukemia,> 100 µM
same,TGI,SF-539 CNS,89.9 µM
same,TGI,SF-268 CNS,> 100 µM
same,TGI,HOP-92 NSCLC,90.7 µM
same,TGI,SF-295 CNS,> 100 µM
same,TGI,OVCAR-8 ovarian,> 100 µM
same,TGI,UACC-62 melanoma,48.5 µM
same,TGI,M14 melanoma,> 100 µM
same,TGI,DU-145 prostate,> 100 µM
same,TGI,HOP-62 NSCLC,> 100 µM
same,TGI,UACC-257 melanoma,> 100 µM
same,TGI,KM12 colon,> 100 µM
same,TGI,U251 CNS,87.3 µM
same,TGI,HS 578T breast,> 100 µM
same,TGI,SNB-75 CNS,> 100 µM
same,TGI,NCI-H460 lung,> 100 µM
same,TGI,OVCAR-5 ovarian,> 100 µM
same,TGI,IGROV1 ovarian,> 100 µM
same,TGI,SNB-19 CNS,> 100 µM
same,TGI,TK-10 renal,> 100 µM
same,TGI,SK-OV-3 ovarian,> 100 µM
same,TGI,K-562 leukemia,> 100 µM
same,TGI,HCC-2998 colon,> 100 µM
same,TGI,786-0 renal,> 100 µM
same,TGI,MCF7 breast,> 100 µM
same,TGI,HT29 colon,> 100 µM
same,TGI,COLO 205 colon,> 100 µM
same,TGI,MALME-3M melanoma,> 100 µM
same,TGI,NCI-H522 lung,> 100 µM
same,TGI,ACHN renal,> 100 µM
same,TGI,PC-3 prostate,> 100 µM
same,TGI,EKVX NSCLC,> 100 µM
same,TGI,HCT-15 colon,> 100 µM
same,TGI,BT-549 breast,82.1 µM
same,TGI,CCRF-CEM leukemia,> 100 µM
same,TGI,OVCAR-4 ovarian,> 100 µM
same,TGI,SK-MEL-28 melanoma,> 100 µM
same,TGI,NCI/ADR-RES ovarian,> 100 µM
Cn1c(I)c(C#C[Si](C)(C)C)c(=O)n(C(=O)c2ccccc2)c1=O,GI50,NCI-H226 lung,7.44 µM
same,TGI,NCI-H226 lung,21.7 µM
same,GI50,MDA-MB-435,3.42 µM
same,TGI,MDA-MB-435,13.4 µM
same,GI50,A498 renal,10.9 µM
same,TGI,A498 renal,24.3 µM
same,GI50,A549 NSCLC,5.63 µM
same,TGI,A549 NSCLC,24.8 µM
same,GI50,CAKI-1 renal,2560 nM
same,TGI,CAKI-1 renal,6.85 µM
same,GI50,SR leukemia,1890 nM
same,GI50,HL-60(TB) leukemia,1520 nM
same,TGI,HL-60(TB) leukemia,> 51.5 µM
same,GI50,MDA-MB-231 breast,5.22 µM
same,TGI,MDA-MB-231 breast,11.8 µM
same,GI50,MOLT-4 leukemia,1250 nM
same,TGI,MOLT-4 leukemia,> 21.9 µM
same,GI50,LOX IMVI melanoma,2790 nM
same,TGI,LOX IMVI melanoma,8.26 µM
same,GI50,RXF 393 renal,1640 nM
same,TGI,RXF 393 renal,3.14 µM
same,GI50,SK-MEL-2 melanoma,12.8 µM
same,TGI,SK-MEL-2 melanoma,26 µM
same,GI50,UO-31 renal,2660 nM
same,TGI,UO-31 renal,11.9 µM
same,GI50,SW-620 colon,2010 nM
same,TGI,SW-620 colon,4.27 µM
same,GI50,HCT-116 colon,1740 nM
same,TGI,HCT-116 colon,3.44 µM
same,GI50,NCI-H23 lung,8.28 µM
same,TGI,NCI-H23 lung,27.8 µM
same,GI50,OVCAR-3 ovarian,1790 nM
same,TGI,OVCAR-3 ovarian,3.29 µM
same,GI50,SK-MEL-5 melanoma,2760 nM
same,TGI,SK-MEL-5 melanoma,9.15 µM
same,GI50,T-47D breast,2030 nM
same,TGI,T-47D breast,5.91 µM
same,GI50,SN12C renal,6.26 µM
same,TGI,SN12C renal,18.8 µM
same,GI50,RPMI-8226 leukemia,2020 nM
same,TGI,RPMI-8226 leukemia,> 20.4 µM
same,GI50,SF-539 CNS,5.3 µM
same,TGI,SF-539 CNS,12.1 µM
same,GI50,SF-268 CNS,3.22 µM
same,TGI,SF-268 CNS,10.2 µM
same,GI50,HOP-92 NSCLC,2600 nM
same,TGI,HOP-92 NSCLC,13.6 µM
same,GI50,SF-295 CNS,21.5 µM
same,TGI,SF-295 CNS,48.7 µM
same,GI50,OVCAR-8 ovarian,12.4 µM
same,TGI,OVCAR-8 ovarian,26.1 µM
same,GI50,UACC-62 melanoma,4.51 µM
same,TGI,UACC-62 melanoma,17 µM
same,GI50,M14 melanoma,1990 nM
same,TGI,M14 melanoma,4.16 µM
same,GI50,DU-145 prostate,1950 nM
same,TGI,DU-145 prostate,3.78 µM
same,GI50,HOP-62 NSCLC,11.7 µM
same,TGI,HOP-62 NSCLC,25.8 µM
same,GI50,UACC-257 melanoma,11.6 µM
same,TGI,UACC-257 melanoma,24.6 µM
same,GI50,KM12 colon,12.1 µM
same,TGI,KM12 colon,27.8 µM
same,GI50,U251 CNS,12.5 µM
same,TGI,U251 CNS,25 µM
same,GI50,HS 578T breast,7.12 µM
same,TGI,HS 578T breast,23.6 µM
same,GI50,SNB-75 CNS,4.2 µM
same,TGI,SNB-75 CNS,20.5 µM
same,GI50,NCI-H460 lung,8.34 µM
same,TGI,NCI-H460 lung,26.2 µM
same,GI50,OVCAR-5 ovarian,14.3 µM
same,TGI,OVCAR-5 ovarian,28.5 µM
same,GI50,IGROV1 ovarian,1740 nM
same,TGI,IGROV1 ovarian,3.45 µM
same,GI50,SNB-19 CNS,15.5 µM
same,TGI,SNB-19 CNS,31.8 µM
same,GI50,TK-10 renal,3.81 µM
same,TGI,TK-10 renal,14 µM
same,GI50,SK-OV-3 ovarian,529 nM
same,TGI,SK-OV-3 ovarian,21.7 µM
same,GI50,HCC-2998 colon,6.78 µM
same,TGI,HCC-2998 colon,21.6 µM
same,GI50,786-0 renal,3.49 µM
same,TGI,786-0 renal,11.7 µM
same,GI50,MCF7 breast,1920 nM
same,TGI,MCF7 breast,5.65 µM
same,GI50,HT29 colon,3.32 µM
same,TGI,HT29 colon,15.8 µM
same,GI50,COLO 205 colon,1550 nM
same,TGI,COLO 205 colon,3.2 µM
same,GI50,MALME-3M melanoma,2720 nM
same,TGI,MALME-3M melanoma,6.63 µM
same,GI50,NCI-H522 lung,4.19 µM
same,TGI,NCI-H522 lung,8.99 µM
same,GI50,ACHN renal,2900 nM
same,TGI,ACHN renal,7.83 µM
same,GI50,PC-3 prostate,3.52 µM
same,TGI,PC-3 prostate,13.5 µM
same,GI50,EKVX NSCLC,6.06 µM
same,TGI,EKVX NSCLC,21.2 µM
same,GI50,HCT-15 colon,2450 nM
same,TGI,HCT-15 colon,7.3 µM
same,GI50,BT-549 breast,12.2 µM
same,TGI,BT-549 breast,25.6 µM
same,GI50,CCRF-CEM leukemia,432 nM
same,GI50,OVCAR-4 ovarian,4.59 µM
same,TGI,OVCAR-4 ovarian,15.1 µM
same,GI50,SK-MEL-28 melanoma,2030 nM
same,TGI,SK-MEL-28 melanoma,3.8 µM
same,GI50,NCI/ADR-RES ovarian,22.4 µM
same,TGI,NCI/ADR-RES ovarian,48.8 µM
